Assays:
[1] = Parallel artificial membrane permeability assay for the blood–brain barrier (PAMPA-BBB), coupled with UHPLC-DAD; type: in vitro ADME; conditions: constituent measured within T. balsamita 50% (v/v) ethanolic extract (TbE), donor pH 7.4, acceptor pH 7.4, 37 °C, Pe in cm/s, n = 9, read-out: logPe PAMPA-BBB (n = 9) (converted)
Excerpt: (§1) The ability of the compounds in T. balsamita extract (TbE and TbW) to cross biological membranes of the gastrointestinal (GI) tract and the blood–brain barrier (BBB) by passive diffusion was investigated using the PAMPA model. The coupling of this assay with UHPLC separation allowed the rapid simultaneous investigation of the membrane permeability of the compounds present in the extract (Figure 3). […] Due to the artificial nature of the membrane used in the assay, only passive transport mechanisms can occur, unlike in cell-based assays. This is particularly important in the case of plant extracts due to their complexity, as the evaluation of results obtained by different co-existing mechanisms (e.g., active transport, or metabolism) can be challenging. Furthermore, no significant differences in effective permeabilities are observed in the PAMPA, whether assessed with single compounds or mixtures. […]
(§2) After incubation, sandwich plates were separated, and the concentrations of each compound in the starting donor solution and in the acceptor and donor wells were determined in triplicate by chromatographic peak areas derived from the UHPLC-DAD method described above. UV spectra and chromatograms were recorded at 200–400 nm, and the chromatograms acquired at the UV absorption maxima of each compound were used for data evaluation. […]

[2] = Parallel artificial membrane permeability assay for the gastrointestinal tract (PAMPA-GI), coupled with UHPLC-DAD; type: in vitro ADME; conditions: constituent measured within T. balsamita 50% (v/v) ethanolic extract (TbE), donor pH 6.8, acceptor pH 7.4, 37 °C, Pe in cm/s, n = 9, read-out: logPe PAMPA-GI (n = 9) (converted)
Excerpt: as §1, §2

[3] = design: method as in PMID 29182998; conditions: isolated from Tanacetum parthenium; cited from earlier work

SMILES: O=c1cc(-c2ccc(O)cc2)oc2cc(O)cc(O)c12 [Compound 86, apigenin]
- Papp at 4 h [1]: 34.7 ×10⁻⁶ cm/s
- Papp at 4 h [2]: 17.8 ×10⁻⁶ cm/s
- permeability in the PAMPA-BBB model (in words) [3]: good permeability

SMILES: COc1c(O)cc2oc(-c3ccc(O)c(O)c3)c(OC)c(=O)c2c1O [axillarin]
- permeability in the PAMPA-BBB model (in words) [3]: good permeability

SMILES: COc1ccc(-c2oc3cc(OC)c(OC)c(O)c3c(=O)c2OC)cc1O [casticin]
- permeability in the PAMPA-BBB model (in words) [3]: good permeability

SMILES: COc1ccc(-c2cc(=O)c3c(O)c(OC)c(O)c(OC)c3o2)cc1 [nevadensin]
- permeability in the PAMPA-BBB model (in words) [3]: good permeability

SMILES: COc1cc(-c2cc(=O)c3c(O)c(OC)c(O)c(OC)c3o2)ccc1O [sudachitin]
- permeability in the PAMPA-BBB model (in words) [3]: good permeability

— PMC11207953, “Phytochemical Investigation of Polyphenols from the Aerial Parts of Tanacetum balsamita Used in Transylvanian Ethnobotany and Parallel Artificial Membrane Permeability Assay” (Plants, 2024)
